# Measured values published in US8772277B2, “Nitrogen-containing heterocyclic compound” (Takeda Pharmaceutical Company Limited, priority 2011, dated 2014).
# Where a name gives a salt, the structure may show the parent alone.
# What was measured:
# [1] = target: T1, GST-ERR-α ligand-binding domain (Homo sapiens, UniProt P11474); experiment: HTRF assay system using ERR-α ligand-binding domain (inverse agonist activity, biotinylated SRC-1 (676-700) peptide); type: biochemical; settings: compound final concentration 30 μM, 665/620 ratio, no compound = 0%, 10 μM XCT-790 = 100%; for inhibition at 30 µM: read-out: inhibition rate (%) at 30 μM
# T1 sequence (P11474 193-421 limits assumed): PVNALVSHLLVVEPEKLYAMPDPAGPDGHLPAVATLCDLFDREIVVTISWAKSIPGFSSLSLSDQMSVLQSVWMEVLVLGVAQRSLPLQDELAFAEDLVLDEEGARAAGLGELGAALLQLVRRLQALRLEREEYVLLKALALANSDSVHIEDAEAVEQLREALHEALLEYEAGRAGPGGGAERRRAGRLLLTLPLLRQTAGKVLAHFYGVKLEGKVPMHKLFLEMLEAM
# Experimental: Experimental Example 1 Compound Evaluation in HTRF Assay System Using ERR-α Ligand-Binding Domain
# An assay buffer (25 mM HEPES, 100 mM NaCl, 1 mM DTT, 0.1% BSA) containing 5 nM GST-ERR-α ligand-binding domain (final concentration 1.25 nM) was added to a 384 well plate, then 40 μM N-[5-(trifluoromethyl)-1,3,4-thiadiazol-2-yl]-2-cyano-3-[3-methoxy-4-[2,4-di(trifluoromethyl)benzyloxy]phenyl]propenamide (XCT-790) (final concentration 10 μM), or 120 μM compound (final concentration 30 μM) was added. Furthermore, an assay buffer containing XL665 conjugated Streptavidin, Eu^3+ criptate conjugated GST antibody and 200 nM biotinylated SRC-1 (676-700) (final concentration 100 nM) was added, and the mixture was reacted at room temperature for 2 hr. Using Multiplate reader Envision (Perkin Elmer Inc.), after excitation at 320 nm, fluorescence values at 620 nm and 665 nm were measured. The inverse agonist activity of the compound was calculated in percentage with the 665/620 ratio value inhibited by no addition of compound as 0%, and with addition of final concentration 10 μM of XCT-790 as 100%.
# [2] = target: T2, fusion protein containing GAL4-DNA-binding domain and ERR full-length (Homo sapiens, UniProt P11474); experiment: Reporter assay system using 293T cells (GAL4-ERR luciferase, inverse agonist activity); type: cell-based; settings: compound final concentration 3 μM, no compound = 0%, 10 μM XCT-790 = 100%; for inhibition at 3 µM: HEK-293T, read-out: inhibition rate (%) at 3 μM
# T2 construct: expressed in transfected cells; host or cells: 293T cells
# T2 sequence (P11474 1-423): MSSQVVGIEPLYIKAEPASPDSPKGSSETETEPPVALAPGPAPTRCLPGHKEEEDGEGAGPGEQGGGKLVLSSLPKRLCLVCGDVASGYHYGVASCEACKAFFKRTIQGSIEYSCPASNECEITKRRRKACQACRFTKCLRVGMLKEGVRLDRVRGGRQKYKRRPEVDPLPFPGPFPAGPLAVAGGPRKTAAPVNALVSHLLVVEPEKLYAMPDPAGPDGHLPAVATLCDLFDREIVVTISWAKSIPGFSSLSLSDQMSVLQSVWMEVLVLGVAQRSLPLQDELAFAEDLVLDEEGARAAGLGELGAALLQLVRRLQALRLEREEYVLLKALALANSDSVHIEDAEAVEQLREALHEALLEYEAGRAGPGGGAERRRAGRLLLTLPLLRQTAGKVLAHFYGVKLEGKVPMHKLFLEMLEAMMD
# Experimental: Experimental Example 2 Compound Evaluation in Reporter Assay System Using 293T Cells
# 293T cells derived from human kidney were seeded in a 150 cm^2 flask by 6,000,000 cells, and cultured in a medium (DMEM medium containing 10% inactivated Fetal Bovine Serum sterile filtered (FBS), […] Gentamicin, 10 mM HEPES buffer (pH 7.4)) at 37° C. in the presence of 5% CO2 for 1 day.
# Then, vector DNA having a gene encoding a fusion protein, containing GAL4-DNA-binding domain and ERR full-length and a vector DNA wherein luciferase gene is fused at the downstream of GAL4-binding-sequence were cotransfected by a lipofection method, and the cells were cultured at 37° C. in the presence of 5% CO2 for 1 day. The cells were recovered, sown in a 384 well plate by 15,000 cells, and cultured at 37° C. in the presence of 5% CO2 for 3 hrs. Furthermore, 50 μM N-[5-(trifluoromethyl)-1,3,4-thiadiazol-2-yl]-2-cyano-3-[3-methoxy-4-[2,4-di(trifluoromethyl)benzyloxy]phenyl]propenamide (XCT-790) (final concentration 10 μM) or 15 μM compound (final concentration 3 μM) was added, and the cells were cultured at 37° C. in the presence of 5% CO2 for 1 day. The luciferase activity was measured by using multiplate reader Envision (Perkin Elmer Inc.). The inverse agonist activity of the compound was calculated in percentage with the luciferase activity inhibited by no addition of compound as 0%, and with addition of final concentration 10 μM of XCT-790 as 100%.
inhibition at 30 µM [1] [%],inhibition at 3 µM [2] [%],inhibition rate (%) at 30 μM [1] [%],inhibition rate (%) at 3 μM [2] [%],Compound
102,78,,,"CN(C)C(=O)[C@H](CO)NC1=NC(=O)S/C1=C\C1CCN(Cc2ccc(C(F)(F)F)cc2C(F)(F)F)CC1 [Example 132, N^2-[(5Z)-5-({1-[2,4-bis(trifluoromethyl)benzyl]piperidin-4-yl}methylidene)-2-oxo-2,5-dihydro-1,3-thiazol-4-yl]-N,N-dimethyl-L-serinamide]"
95,90,,,"O=C1N=C(NCC2CC2)/C(=C/C2CCN(Cc3ccc(C(F)(F)F)cc3C(F)(F)F)CC2)S1 [Example 61, (5Z)-5-({1-[2,4-bis(trifluoromethyl)benzyl]piperidin-4-yl}methylidene)-4-[(cyclopropylmethyl)amino]-1,3-thiazol-2(5H)-one fumarate]"
109,,,,"CNC1=NC(=O)S/C1=C\C1CCN(Cc2ccc(C(F)(F)F)cc2C(F)(F)F)CC1 [Example 37, (5Z)-5-({1-[2,4-bis(trifluoromethyl)benzyl]piperidin-4-yl}methylidene)-4-(methylamino)-1,3-thiazol-2(5H)-one fumarate]"
106,91,,,"O=C1N=C(NCC(O)CO)/C(=C/C2CCN(Cc3ccc(C(F)(F)F)cc3C(F)(F)F)CC2)S1 (stereo not drawn) [Example 56, (5Z)-5-({1-[2,4-bis(trifluoromethyl)benzyl]piperidin-4-yl}methylidene)-4-[(2,3-dihydroxypropyl)amino]-1,3-thiazol-2(5H)-one]"
105,92,,,"C#CCNC1=NC(=O)S/C1=C\C1CCN(Cc2ccc(Cl)cc2C(F)(F)F)CC1 [Example 24, (5Z)-5-({1-[4-chloro-2-(trifluoromethyl)benzyl]piperidin-4-yl}methylidene)-4-(prop-2-yn-1-ylamino)-1,3-thiazol-2(5H)-one fumarate]"
109,82,,,"CC(C)(CO)CNC1=NC(=O)S/C1=C\C1CCN(Cc2ccc(C(F)(F)F)cc2C(F)(F)F)CC1 [Example 77, (5Z)-5-({1-[2,4-bis(trifluoromethyl)benzyl]piperidin-4-yl}methylidene)-4-[(3-hydroxy-2,2-dimethylpropyl)amino]-1,3-thiazol-2(5H)-one]"
108,90,,,"CCN(CC)CCOCCNC1=NC(=O)S/C1=C\C1CCN(Cc2ccc(C(F)(F)F)cc2C(F)(F)F)CC1 [Example 47, (5Z)-5-({1-[2,4-bis(trifluoromethyl)benzyl]piperidin-4-yl}methylidene)-4-({2-[2-(diethylamino)ethoxy]ethyl}amino)-1,3-thiazol-2(5H)-one ditosylate]"
67,87,,,"C#CCNC1=NC(=O)S/C1=C\C1CCN(Cc2ccc(C(F)(F)F)cc2C(F)(F)F)C1 (stereo not drawn) [Example 69, (5Z)-5-({1-[2,4-bis(trifluoromethyl)benzyl]pyrrolidin-3-yl}methylidene)-4-(prop-2-yn-1-ylamino)-1,3-thiazol-2(5H)-one maleate]"
,,97,87,"O=C1N=C(NCCOCCO)/C(=C/C2CCN(Cc3ccc(C(F)(F)F)cc3C(F)(F)F)CC2)S1 [Example 8, (5Z)-5-({1-[2,4-bis(trifluoromethyl)benzyl]piperidin-4-yl}methylidene)-4-{[2-(2-hydroxyethoxy)ethyl]amino}-1,3-thiazol-2(5H)-one]"
101,88,,,"CCCNC1=NC(=O)S/C1=C\C1CCN(Cc2ccc(C(F)(F)F)cc2C(F)(F)F)CC1 [Example 200, (5Z)-5-({1-[2,4-bis(trifluoromethyl)benzyl]piperidin-4-yl}methylidene)-4-(propylamino)-1,3-thiazol-2(5H)-one]"
110,91,,,"CN(CCO)CCNC1=NC(=O)S/C1=C\C1CCN(Cc2ccc(C(F)(F)F)cc2C(F)(F)F)CC1 [Example 58, (5Z)-5-({1-[2,4-bis(trifluoromethyl)benzyl]piperidin-4-yl}methylidene)-4-({2-[(2-hydroxyethyl)(methyl)amino]ethyl}amino)-1,3-thiazol-2(5H)-one ½fumarate]"
101,84,,,"CCNC1=NC(=O)S/C1=C\C1CCN(Cc2ccc(C(F)(F)F)cc2C(F)(F)F)CC1 [Example 199, (5Z)-5-({1-[2,4-bis(trifluoromethyl)benzyl]piperidin-4-yl}methylidene)-4-(ethylamino)-1,3-thiazol-2(5H)-one]"
105,86,,,"CNC1=NC(=O)N(C)/C1=C\C1CCN(Cc2ccc(C(F)(F)F)cc2C(F)(F)F)CC1 [Example 80, (5Z)-5-({1-[2,4-bis(trifluoromethyl)benzyl]piperidin-4-yl}methylidene)-1-methyl-4-(methylamino)-1,5-dihydro-2H-imidazol-2-one]"
106,85,,,"COCCOCCNC1=NC(=O)S/C1=C\C1CCN(Cc2ccc(C(F)(F)F)cc2C(F)(F)F)CC1 [Example 39, (5Z)-5-({1-[2,4-bis(trifluoromethyl)benzyl]piperidin-4-yl}methylidene)-4-{[2-(2-methoxyethoxy)ethyl]amino}-1,3-thiazol-2(5H)-one]"
,88,,,"CC(C)(O)C#CCNC1=NC(=O)S/C1=C\C1CCN(Cc2ccc(C(F)(F)F)cc2C(F)(F)F)CC1 [Example 87, (5Z)-5-({1-[2,4-bis(trifluoromethyl)benzyl]piperidin-4-yl}methylidene)-4-[(4-hydroxy-4-methylpent-2-yn-1-yl)amino]-1,3-thiazol-2(5H)-one]"
106,87,,,"O=C1N=C(NC2CCOC2)/C(=C/C2CCN(Cc3ccc(C(F)(F)F)cc3C(F)(F)F)CC2)S1 (stereo not drawn) [Example 43, (5Z)-5-({1-[2,4-bis(trifluoromethyl)benzyl]piperidin-4-yl}methylidene)-4-(tetrahydrofuran-3-ylamino)-1,3-thiazol-2(5H)-one 0.5 fumarate]"
,,101,87,"CC(C)(O)CNC1=NC(=O)S/C1=C\C1CCN(Cc2ccc(C(F)(F)F)cc2C(F)(F)F)CC1 [Example 31, (5Z)-5-({1-[2,4-bis(trifluoromethyl)benzyl]piperidin-4-yl}methylidene)-4-[(2-hydroxy-2-methylpropyl)amino]-1,3-thiazol-2(5H)-one]"
,88,,,"CNC1=NC(=O)S/C1=C\C1CCN(Cc2ccc(C(F)(F)F)cc2C(F)(F)F)CC1 [Example 3, (5Z)-5-({1-[2,4-bis(trifluoromethyl)benzyl]piperidin-4-yl}methylidene)-4-(methylamino)-1,3-thiazol-2(5H)-one]"
